{
  "source": "ChEMBL document CHEMBL1629543",
  "about": "“Recovery of humoral immunity is critical for successful antiviral therapy in disseminated mouse adenovirus type 1 infection” (Antimicrob Agents Chemother, 2008)",
  "key": {"Murine adenovirus 1": {"tested_on": "Murine adenovirus 1", "details": "Liver, 100 mg/kg", "description": "Antiviral activity against MAV-1 infected in immunocompromized BALB/c mouse assessed as decrease in viral DNA load in liver at 100 mg/kg, ip treated 8 days before infection measured after 28 days post infection by RT-PCR"}, "Mus musculus [1]": {"organism": "Mus musculus", "details": "BALB/c, T-cell, 100 mg/kg", "description": "Immunosuppressive activity against MAV-1 infected BALB/c mouse assessed as T cells suppression at 100 mg/kg, ip treated 8 days before infection for 4 weeks measured 14 days post infection by flow cytometry"}, "Mus musculus [2]": {"organism": "Mus musculus", "details": "BALB/c, 100 mg/kg", "description": "Immunosuppressive activity against MAV-1 infected BALB/c mouse assessed as inhibition of production of protective antibodies at 100 mg/kg, ip treated 8 days before infection for 3 weeks measured after 62 days postinfection"}, "Mus musculus [3]": {"organism": "Mus musculus", "details": "BALB/c, 100 mg/kg", "remark": "listed apart in the source", "description": "Immunosuppressive activity against MAV-1 infected BALB/c mouse assessed as inhibition of production of protective antibodies at 100 mg/kg, ip treated 8 days before infection for 2 weeks measured after 62 days postinfection"}},
  "note": "Activity calls are given as the source filed them. The rule behind the calls is not given here.",
  "data": [
    {"smiles": "O=P1(N(CCCl)CCCl)NCCCO1", "note": "(centres undefined)", "values": [
      {"measurement": "inhibition", "setting": "Murine adenovirus 1", "value": "Active"},
      {"measurement": "inhibition", "setting": "Mus musculus [1]", "value": "Active"},
      {"measurement": "inhibition", "setting": "Mus musculus [2]", "value": "inactive"},
      {"measurement": "inhibition", "setting": "Mus musculus [3]", "value": "Active"}
    ]}
  ]
}
